Holding throughout (experiment): Enzyme Assay
One assay has as its target Stromelysin-1 (Homo sapiens, UniProt P08254). Conditions: pH 6.8; 25 °C.
Assay [1] deals with Matrix metalloproteinase-9 (Homo sapiens, UniProt P14780). Conditions: pH 6.8; 25 °C.
The target of assay [2] is T1, A disintegrin and metalloproteinase with thrombospondin motifs 5 (Homo sapiens, UniProt Q9UNA0).
T1 sequence (Q9UNA0 whole entry): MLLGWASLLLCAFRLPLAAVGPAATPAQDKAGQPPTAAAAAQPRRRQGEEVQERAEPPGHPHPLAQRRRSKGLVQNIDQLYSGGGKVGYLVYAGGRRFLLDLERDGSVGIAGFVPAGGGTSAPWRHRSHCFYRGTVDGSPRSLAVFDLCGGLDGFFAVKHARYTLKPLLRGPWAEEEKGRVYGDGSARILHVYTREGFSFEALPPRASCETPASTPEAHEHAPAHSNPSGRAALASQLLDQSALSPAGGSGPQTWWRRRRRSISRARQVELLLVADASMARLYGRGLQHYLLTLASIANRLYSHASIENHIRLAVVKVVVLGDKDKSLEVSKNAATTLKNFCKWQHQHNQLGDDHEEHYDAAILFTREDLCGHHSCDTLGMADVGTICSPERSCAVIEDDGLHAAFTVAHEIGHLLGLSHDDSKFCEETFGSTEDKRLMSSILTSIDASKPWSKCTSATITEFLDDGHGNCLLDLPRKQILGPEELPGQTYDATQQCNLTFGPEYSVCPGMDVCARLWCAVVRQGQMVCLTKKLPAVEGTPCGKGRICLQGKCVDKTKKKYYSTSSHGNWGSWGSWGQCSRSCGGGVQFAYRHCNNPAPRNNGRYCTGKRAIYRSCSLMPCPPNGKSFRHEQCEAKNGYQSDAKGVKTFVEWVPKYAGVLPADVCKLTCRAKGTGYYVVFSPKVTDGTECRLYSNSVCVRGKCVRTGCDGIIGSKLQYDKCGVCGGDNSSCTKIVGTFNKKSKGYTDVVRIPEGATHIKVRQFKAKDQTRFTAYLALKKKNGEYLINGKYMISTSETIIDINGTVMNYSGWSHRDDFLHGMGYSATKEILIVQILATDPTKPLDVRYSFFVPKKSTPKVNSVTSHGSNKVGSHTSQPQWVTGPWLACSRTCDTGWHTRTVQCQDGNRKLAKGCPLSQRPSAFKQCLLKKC
Conditions: pH 6.8; 37 °C.

In a further assay the target is Stromelysin-2 (Homo sapiens, UniProt P09238). As to conditions: pH 6.8; 25 °C.
Assay [3] has as its target Macrophage metalloelastase (Homo sapiens, UniProt P39900). As to conditions: pH 6.8; 25 °C.
Assay [4] concerns the target 72 kDa type IV collagenase (Homo sapiens, UniProt P08253). As to conditions: pH 6.8; 25 °C.
For the next assay, the target named is Collagenase 3 (Homo sapiens, UniProt P45452). As to conditions: pH 6.8; 25 °C.
Assay [5] deals with Matrix metalloproteinase-14 (Homo sapiens, UniProt P50281). Conditions: pH 6.8; 25 °C.
The target of the next assay is Neutrophil collagenase (Homo sapiens, UniProt P22894). As to conditions: pH 6.8; 25 °C.
Another assay addresses T2, Interstitial collagenase (Homo sapiens, UniProt P03956).
T2 sequence (P03956 whole entry): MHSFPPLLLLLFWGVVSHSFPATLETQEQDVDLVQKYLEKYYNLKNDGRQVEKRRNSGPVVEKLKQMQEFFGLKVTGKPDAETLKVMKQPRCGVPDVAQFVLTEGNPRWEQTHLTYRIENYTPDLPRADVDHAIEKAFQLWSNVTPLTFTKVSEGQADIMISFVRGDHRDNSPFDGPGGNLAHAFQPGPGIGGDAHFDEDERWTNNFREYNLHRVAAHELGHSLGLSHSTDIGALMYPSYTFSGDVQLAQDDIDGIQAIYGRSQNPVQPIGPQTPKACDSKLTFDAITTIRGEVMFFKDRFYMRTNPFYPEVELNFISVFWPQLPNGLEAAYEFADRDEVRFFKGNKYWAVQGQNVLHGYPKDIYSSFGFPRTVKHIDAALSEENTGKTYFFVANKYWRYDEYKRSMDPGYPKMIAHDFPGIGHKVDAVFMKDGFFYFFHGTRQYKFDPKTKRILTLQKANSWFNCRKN
Conditions: pH 6.8; 25 °C.

Assay [6] addresses T3, A disintegrin and metalloproteinase with thrombospondin motifs 4 (Homo sapiens, UniProt O75173).
T3 sequence (O75173 whole entry): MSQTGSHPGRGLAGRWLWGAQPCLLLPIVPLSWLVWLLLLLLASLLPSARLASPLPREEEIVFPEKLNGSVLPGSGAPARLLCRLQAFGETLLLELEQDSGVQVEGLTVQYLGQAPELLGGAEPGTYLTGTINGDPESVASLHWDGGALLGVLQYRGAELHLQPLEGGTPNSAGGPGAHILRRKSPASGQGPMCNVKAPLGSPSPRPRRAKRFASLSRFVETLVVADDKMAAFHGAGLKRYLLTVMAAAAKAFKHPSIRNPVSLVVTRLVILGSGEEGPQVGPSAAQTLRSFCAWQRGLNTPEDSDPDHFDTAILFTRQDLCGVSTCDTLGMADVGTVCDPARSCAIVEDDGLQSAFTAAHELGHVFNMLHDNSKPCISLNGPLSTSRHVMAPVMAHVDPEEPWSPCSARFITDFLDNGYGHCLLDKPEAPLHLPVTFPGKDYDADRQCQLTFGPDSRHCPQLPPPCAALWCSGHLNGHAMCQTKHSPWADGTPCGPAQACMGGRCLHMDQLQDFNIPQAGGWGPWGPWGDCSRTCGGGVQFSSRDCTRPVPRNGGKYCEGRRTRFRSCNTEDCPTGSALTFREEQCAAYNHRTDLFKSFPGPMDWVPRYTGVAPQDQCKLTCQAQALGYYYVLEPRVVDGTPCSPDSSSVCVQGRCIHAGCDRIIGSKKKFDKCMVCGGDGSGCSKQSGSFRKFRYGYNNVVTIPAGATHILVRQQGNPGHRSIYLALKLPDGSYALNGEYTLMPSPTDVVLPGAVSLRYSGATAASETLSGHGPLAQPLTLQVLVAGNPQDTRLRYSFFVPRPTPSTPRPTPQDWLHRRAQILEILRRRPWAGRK
As to conditions: pH 6.8; 25 °C.

The next assay addresses T4, Matrilysin (Homo sapiens, UniProt P09237).
T4 sequence (P09237 whole entry): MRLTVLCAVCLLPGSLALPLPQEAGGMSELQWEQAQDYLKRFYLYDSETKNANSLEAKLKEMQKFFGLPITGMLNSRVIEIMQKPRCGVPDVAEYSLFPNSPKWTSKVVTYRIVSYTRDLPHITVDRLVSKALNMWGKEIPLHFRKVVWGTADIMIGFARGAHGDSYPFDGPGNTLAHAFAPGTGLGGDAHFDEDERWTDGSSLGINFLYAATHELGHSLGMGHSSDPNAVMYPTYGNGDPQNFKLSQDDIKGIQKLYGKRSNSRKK
As to conditions: pH 6.8; 25 °C.

For eight compounds, Ki and IC50 results are on record in BindingDB's records for doi:10.1074/jbc.M112.380782 (French Alternative Energies and Atomic Energy Commission, 2012).

72 kDa type IV collagenase, sequence (P08253 whole entry): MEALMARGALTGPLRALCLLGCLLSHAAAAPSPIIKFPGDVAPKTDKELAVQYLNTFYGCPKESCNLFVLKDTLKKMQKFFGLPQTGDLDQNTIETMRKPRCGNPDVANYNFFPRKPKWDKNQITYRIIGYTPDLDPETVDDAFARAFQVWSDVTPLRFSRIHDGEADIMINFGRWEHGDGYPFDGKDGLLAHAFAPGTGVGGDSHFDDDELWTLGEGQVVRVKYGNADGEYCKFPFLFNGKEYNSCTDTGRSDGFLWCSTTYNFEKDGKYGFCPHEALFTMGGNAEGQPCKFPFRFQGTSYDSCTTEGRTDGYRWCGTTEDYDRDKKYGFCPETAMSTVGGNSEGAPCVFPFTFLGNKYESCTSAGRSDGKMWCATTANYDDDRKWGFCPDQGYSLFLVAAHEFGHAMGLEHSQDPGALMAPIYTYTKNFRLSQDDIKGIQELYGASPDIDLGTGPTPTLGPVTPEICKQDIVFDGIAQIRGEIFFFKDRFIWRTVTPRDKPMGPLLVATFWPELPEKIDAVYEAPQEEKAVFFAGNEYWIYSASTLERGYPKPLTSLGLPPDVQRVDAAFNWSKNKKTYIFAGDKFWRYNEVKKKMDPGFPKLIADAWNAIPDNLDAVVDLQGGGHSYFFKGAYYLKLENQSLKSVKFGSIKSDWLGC
Stromelysin-1, sequence (P08254 whole entry): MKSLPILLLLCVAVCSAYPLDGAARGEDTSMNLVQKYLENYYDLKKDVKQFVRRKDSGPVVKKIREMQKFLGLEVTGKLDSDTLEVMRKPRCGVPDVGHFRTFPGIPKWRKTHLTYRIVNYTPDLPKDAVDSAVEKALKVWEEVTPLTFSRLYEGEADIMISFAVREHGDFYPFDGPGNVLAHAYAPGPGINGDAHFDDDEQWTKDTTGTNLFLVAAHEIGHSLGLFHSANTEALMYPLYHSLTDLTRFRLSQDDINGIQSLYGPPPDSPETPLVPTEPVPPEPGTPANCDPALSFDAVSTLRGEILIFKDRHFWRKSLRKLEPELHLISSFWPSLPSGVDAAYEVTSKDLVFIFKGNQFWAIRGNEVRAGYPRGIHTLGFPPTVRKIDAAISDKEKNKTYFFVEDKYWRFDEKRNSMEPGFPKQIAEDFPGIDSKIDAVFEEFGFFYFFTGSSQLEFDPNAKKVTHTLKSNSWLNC
Stromelysin-2, sequence (P09238 whole entry): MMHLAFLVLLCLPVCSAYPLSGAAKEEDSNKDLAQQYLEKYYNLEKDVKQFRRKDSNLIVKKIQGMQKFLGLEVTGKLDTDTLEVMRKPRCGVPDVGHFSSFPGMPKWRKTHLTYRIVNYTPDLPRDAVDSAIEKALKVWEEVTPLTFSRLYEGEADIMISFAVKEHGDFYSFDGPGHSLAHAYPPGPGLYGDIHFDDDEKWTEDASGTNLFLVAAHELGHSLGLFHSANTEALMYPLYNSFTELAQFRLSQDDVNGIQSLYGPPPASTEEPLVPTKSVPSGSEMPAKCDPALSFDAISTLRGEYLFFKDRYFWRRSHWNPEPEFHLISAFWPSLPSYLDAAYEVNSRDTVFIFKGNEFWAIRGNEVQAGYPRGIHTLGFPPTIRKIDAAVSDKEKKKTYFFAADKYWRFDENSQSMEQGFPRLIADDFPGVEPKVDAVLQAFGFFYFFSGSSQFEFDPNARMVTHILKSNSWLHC
Matrix metalloproteinase-9, sequence (P14780 whole entry): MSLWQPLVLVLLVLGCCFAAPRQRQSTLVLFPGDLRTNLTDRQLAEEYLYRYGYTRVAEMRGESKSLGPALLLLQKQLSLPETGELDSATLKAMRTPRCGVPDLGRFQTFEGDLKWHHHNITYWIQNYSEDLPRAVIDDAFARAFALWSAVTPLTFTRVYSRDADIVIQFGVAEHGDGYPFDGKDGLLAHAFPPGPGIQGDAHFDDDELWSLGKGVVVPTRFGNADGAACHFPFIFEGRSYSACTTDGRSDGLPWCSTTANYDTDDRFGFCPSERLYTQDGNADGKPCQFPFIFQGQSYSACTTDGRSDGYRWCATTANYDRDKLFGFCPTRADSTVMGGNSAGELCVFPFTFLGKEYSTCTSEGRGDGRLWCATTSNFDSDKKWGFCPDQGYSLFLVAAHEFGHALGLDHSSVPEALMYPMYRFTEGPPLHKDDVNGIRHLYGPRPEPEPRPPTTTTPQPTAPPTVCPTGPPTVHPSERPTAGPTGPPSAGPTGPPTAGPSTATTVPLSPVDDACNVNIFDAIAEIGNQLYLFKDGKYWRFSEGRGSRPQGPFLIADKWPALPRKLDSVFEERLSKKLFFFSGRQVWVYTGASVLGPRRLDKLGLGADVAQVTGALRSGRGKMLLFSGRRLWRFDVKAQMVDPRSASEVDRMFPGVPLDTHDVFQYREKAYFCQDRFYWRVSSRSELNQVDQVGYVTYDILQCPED
Macrophage metalloelastase, sequence (P39900 whole entry): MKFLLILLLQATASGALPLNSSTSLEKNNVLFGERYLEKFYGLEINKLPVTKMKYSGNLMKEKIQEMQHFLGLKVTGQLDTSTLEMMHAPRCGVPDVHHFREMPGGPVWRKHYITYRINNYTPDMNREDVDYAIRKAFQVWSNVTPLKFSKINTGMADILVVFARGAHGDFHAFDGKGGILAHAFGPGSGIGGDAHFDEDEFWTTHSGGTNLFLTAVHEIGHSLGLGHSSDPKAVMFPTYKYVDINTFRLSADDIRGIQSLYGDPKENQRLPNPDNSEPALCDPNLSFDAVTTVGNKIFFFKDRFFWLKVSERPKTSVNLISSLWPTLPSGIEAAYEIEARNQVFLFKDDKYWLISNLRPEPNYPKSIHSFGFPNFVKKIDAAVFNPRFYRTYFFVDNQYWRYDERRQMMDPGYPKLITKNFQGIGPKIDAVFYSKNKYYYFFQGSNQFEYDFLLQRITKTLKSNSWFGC
Neutrophil collagenase, sequence (P22894 whole entry): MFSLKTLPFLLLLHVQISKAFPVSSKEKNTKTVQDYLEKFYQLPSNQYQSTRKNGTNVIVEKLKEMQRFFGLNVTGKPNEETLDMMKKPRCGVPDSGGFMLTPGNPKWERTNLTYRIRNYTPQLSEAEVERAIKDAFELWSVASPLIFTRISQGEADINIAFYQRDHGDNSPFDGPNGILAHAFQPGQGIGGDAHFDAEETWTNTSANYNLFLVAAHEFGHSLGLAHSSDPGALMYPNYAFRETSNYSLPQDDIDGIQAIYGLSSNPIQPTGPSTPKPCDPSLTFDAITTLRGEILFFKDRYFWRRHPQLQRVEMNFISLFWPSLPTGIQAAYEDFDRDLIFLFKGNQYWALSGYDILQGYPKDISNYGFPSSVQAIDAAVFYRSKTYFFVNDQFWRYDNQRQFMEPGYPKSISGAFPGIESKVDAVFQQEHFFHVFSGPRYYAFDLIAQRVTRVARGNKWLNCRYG

`NC(=O)[C@H](CCC(=O)O)NC(=O)c1ccc(-c2cc(-c3ccccc3)cs2)cc1` [Inhibitor, 16]: the Ki at Stromelysin-1 is 5820 nM; in [1] it was 2230 nM; in assay [2] it was 0.874 µM; at Stromelysin-2, 299 nM; in assay [3], 2.5 nM; in [4], 127 nM. Also, the inhibition constant (Ki) amounted to 501 nM on Collagenase 3 and 968 nM in assay [5].
Turning to `NC(=O)[C@H](CCC(=O)O)NC(=O)CCc1ccc(-c2ccc(-c3ccccc3)s2)cc1` [Inhibitor, 19], the inhibitory constant (Ki) on Stromelysin-1 was determined as 329 nM; in [1], 1330 nM; in assay [2], 0.585 µM; on Stromelysin-2, 352 nM; in assay [3] it was 2.9 nM; in assay [4], 583 nM. Further, the Ki in assay [5] was > 10000 nM.
For `O=C(NCc1ccc(F)c(Cl)c1)c1cc(C(=O)NCC23CCC(C(=O)O)(CC2)CC3)n2nccc2n1` [MMP Inhibitor, 6], the IC50 on Collagenase 3 worked out at 33.4 nM.
On to `NC(=O)[C@@H](CCC(=O)O)NC(=O)[C@H](CCC(=O)O)NC(=O)C(Cc1cc(-c2ccc(-c3cccc(Cl)c3)cc2)no1)CP(=O)(O)c1ccc(Br)cc1` (stereo partly specified) [RXP470, Compound 4], for which the Ki is > 100 nM at Neutrophil collagenase; > 100 nM in assay [1]; 8 nM at Stromelysin-2; > 1000 nM on Interstitial collagenase; 0.2 nM in assay [3]; > 100 nM in assay [4]. Moreover, the Ki in assay [5] was > 100 nM.
With `NC(=O)[C@H](CCC(=O)O)NC(=O)CCc1ccc(-c2cc(-c3ccccc3)cs2)cc1` [US8691753, 105], the inhibitory constant (Ki) on Stromelysin-1 was 3000 nM; in assay [1], 2630 nM; in [2], 4.2 µM; on Stromelysin-2 it was 3110 nM; in [3], 3.6 nM; in [5], 3010 nM.
As to `NC(=O)[C@H](CCC(=O)O)NC(=O)CCc1ccc(-c2ccc(-c3ccccc3)cc2)cc1` [Inhibitor, 18], the inhibition constant (Ki) on Stromelysin-1 is 103 nM; at Neutrophil collagenase it was 205 nM; in assay [1], 2190 nM; in assay [2] it was 5.8 µM; on Stromelysin-2, 54 nM; in [3], 3.3 nM. Also, the inhibition constant (Ki) came out at 47 nM in [4], 18 nM on Collagenase 3 and 1050 nM in assay [5].
For `Cc1ccc(-c2ccc(CCC(=O)N[C@@H](CCC(=O)O)C(N)=O)cc2)s1` [Inhibitor, 17], the Ki is 2160 nM on Stromelysin-1; 5.3 nM at Neutrophil collagenase; 91 nM in assay [1]; 3.22 µM in assay [2]; 390 nM at Stromelysin-2; > 10 µM in assay [6]. Besides, the inhibition constant (Ki) in assay [3] turned out to be 3.3 nM; in assay [4], 57 nM; at Collagenase 3, 338 nM; in [5], 2350 nM.
For the compound `CC(C)C(NS(=O)(=O)c1ccc2c(c1)oc1ccc(N3CCOC3=O)cc12)C(=O)O` (stereo unspecified) [MMP Inhibitor, 2], the IC50 was > 300 nM against Stromelysin-1; 37 nM against Neutrophil collagenase; > 300 nM in assay [1]; > 2000 nM against Interstitial collagenase; 66 nM in assay [4]; > 2000 nM at Matrilysin. Besides, the IC50 on Collagenase 3 was 46 nM; in assay [5], > 2000 nM.

By Ki is commonly meant the equilibrium dissociation constant of an inhibitor or competing ligand from its target. What is called IC50 is the concentration that inhibits the measured activity by half.
